tested on: H1299 cells; test: Dynamic monitoring of cytoplasmic fructose-1,6-bisphosphate in H1299 cells expressing the optical probe; format: cell-based; settings: 0.5 mM 3-BrPA in HBSS, 30-min period, H1299 cells with cytoplasm-expressed probe
Description: • 1. The pCDNA3.1+-based fructose-1,6-bisphosphate optical probe plasmid was transfected into HEK293 cells by the transfection reagent Lipofectamine2000 (Invitrogen), and cultured in a cell incubator at 37° C., 5% CO2. Fluorescence detection was performed 24-36 h after the exogenous gene was fully expressed. • 2. After induction of expression, adherent HEK293 cells were washed three times with PBS and placed in HBSS solution for fluorescence microscopy and microplate reader assays, respectively.
After H1299 cells were transfected with the cytoplasm-expressed optical probe plasmid for 36 h, they were washed with PBS and placed in HBSS solutions containing 0 mM 3-BrPA and 0.5 mM 3-BrPA, and the changes in the ratio of the fluorescence intensity at 528 nm emission and at 420 nm excitation and the fluorescence intensity at 528 nm emission at 485 nm excitation were detected over a 30-min period.

Row | Molecule | ratio of 420/485, maximum relative to the initial value
1 | O=C(O)C(=O)CBr [3-BrPA] | 3.7 times the initial value

tested on: not listed separately; test: Screening of linker-mutated cpYFP optical probes for response to fructose-1,6-bisphosphate; format: biochemical; settings: linker mutants of CggR(88-340)-cpYFP; 485 nm/420 nm signal ratio of sample relative to control
Text: The invention also provides use of fructose-1,6-bisphosphate optical probes in real-time localization, quantitative detection and high-throughput compound screening of fructose-1,6-bisphosphate. In one aspect, the fructose-1,6-bisphosphate optical probe, preferably linked with signal peptides at different parts of the cell, is transferred into cells for real-time localization of fructose-1,6-bisphosphate by detecting the strength of fluorescence signals in cells, corresponding quantitative detection of fructose-1,6-bisphosphate is performed by a fructose-1,6-bisphosphate standard titration curve. […] In the embodiment involving cpYFP, the ratio is the ratio of the ratio of the sample's 485-nanometer fluorescence signal to the 420-nanometer fluorescence signal to the corresponding ratio of the control. The fructose-1,6-bisphosphate standard titration curve of the present invention is drawn based on the fluorescence signal of the fructose-1,6-bisphosphate optical probe under different concentrations of fructose-1,6-bisphosphate. The fructose-1,6-bisphosphate optical probe described herein is directly transferred into cells, which is more accurate without time-consuming sample processing process during the real-time localization and quantitative detection of fructose-1,6-bisphosphate. When the fructose-1,6-bisphosphate optical probe of the present invention is used for high-throughput compound screening, different compounds are added to the cell culture fluid, and the change of fructose-1,6-bisphosphate content is measured, so as to screen out compounds that affect the change of fructose-1,6-bisphosphate content.
• 1. An expression vector (such as a pCDF-based fructose-1,6-bisphosphate optical probe expression vector) was transform into BL21 (DE3) cells, and invert-cultured overnight, and clones were picked from the plate into a 250 ml Erlenmeyer flask, and placed in a 37° C. shaker, cultured at 220 rpm to OD=0.4-0.8, add 1/1000 (v/v) IPTG (1 M), and induced expression at 18° C. for 24-36 h. • 2. After induction, cells were harvested by centrifugation at 4000 rpm for 30 min, resuspended in 50 mM phosphate buffer and disrupted ultrasonically until the broth were clear, centrifuged at 9600 rpm at 4° C. for 20 min. • 3. The centrifuged supernatant was purified by a self-packed nickel-column affinity chromatography column to obtain the protein, and the protein after nickel-column affinity chromatography was then passed through a self-packed desalting column to obtain the protein dissolved in 100 mM HEPES buffer (pH 7.4). • 4. After the purified protein was identified by SDS-PAGE, the probe was diluted with assay buffer (100 mM HEPES, 100 mM NaCl, pH 7.4) into a protein solution with a final concentration of 0.2-5 μM. Fructose-1,6-bisphosphate was prepared as a stock solution at a final concentration of 50 mM with assay buffer (100 mM HEPES, 100 mM NaCl, pH 7.4). • 5. 100 μl of 1 μM protein solution was taken and incubated at 37° C. for 10 min, […], and measured the fluorescence intensity of the protein at 528 nm after excitation at 420 nm and fluorescence intensity of the protein at 528 nm after excitation at 485 nm. The fluorescence excitation and emission measurement of the samples were completed by a multifunctional fluorescence microplate reader. • 6.100 μl of 1 μM protein solution was taken, incubated at 37° C. for 10 min, tryptophan was added, and measured the absorption and fluorescence spectra of the protein. The determination of the absorption spectrum and fluorescence spectrum of the sample was completed by a spectrophotometer and a fluorescence spectrophotometer.
Optical probe mutants were constructed based on PCDF-CggR(88-340)-176/177-CPYFP, PCDF-CggR(88-340)-176/178-CPYFP, PCDF-CggR(88-340)-177/181-CPYFP, PCDF-CggR(88-340)-179/180-CPYFP, PCDF-CggR(88-340)-182/184-CPYFP, PCDF-CggR(88-340)-182/185-CPYFP, PCDF-CggR(88-340)-203/206-CPYFP, PCDF-CggR(88-340)-203/207-CPYFP and PCDF-CggR-203/208(88-340)-CPYFP. […]

Row | Molecule | Standardized fluorescence signal ratio
2 | Serial number 20: cpYFP at 182/184 of CggR(88-340); CggR: N184V/Q185P/D181E/V182G CPYFP: Y1V; SEQ ID NO: 16 | 9.6
3 | Serial number 9: cpYFP at 176/177 of CggR(88-340); CggR: G177M/L178N/Q185D; SEQ ID NO: 13 | 4.17
4 | Serial number 4: cpYFP at 176/177 of CggR(88-340); CggR: G177M/L178N; SEQ ID NO: 10 | 4.54
5 | Serial number 7: cpYFP at 176/177 of CggR(88-340); CggR: G177M/L178N/Q185A; SEQ ID NO: 11 | 4
6 | Serial number 16: cpYFP at 182/184 of CggR(88-340); CggR: N184V/Q185P/D181E/V182G/G177L CPYFP: Y1V; SEQ ID NO: 14 | 11.6
7 | Serial number 17: cpYFP at 182/184 of CggR(88-340); CggR: N184V/Q185P/D181E/V182G/G177L CPYFP: Y1I; SEQ ID NO: 15 | 12
8 | Serial number 8: cpYFP at 176/177 of CggR(88-340); CggR: G177M/L178N/Q185T; SEQ ID NO: 12 | 4

— US20260194517A1, “FRUCTOSE-1,6-DIPHOSPHATE OPTICAL PROBE, AND PREPARATION METHOD THEREFOR AND USE THEREOF” (EAST CHINA UNIVERSITY OF SCIENCE AND TECHNOLOGY, priority 2022, published 2026)
